# Results: article PMC10052035, “Virtual Screening, Structural Analysis, and Formation Thermodynamics of Carbamazepine Cocrystals” (Pharmaceutics, 2023)
# Legend:
# [1] = assay type: physicochemical; conditions: for Scc, solubility of the cocrystal: pH 2; for [CF]eu, eutectic concentration of coformer / [CBZ]eu, eutectic concentration of CBZ / Keu, eutectic constant: pH 2.0, 310.2 K; for [CF]eu, eutectic concentration of coformer: eutectic point; for [CBZ]eu, eutectic concentration of CBZ: eutectic point (drug and cocrystal in equilibrium with solution); for Keu, eutectic constant: Keu = [CF]eu/[CBZ]eu
# Method: The saturation shake-flask method was used to measure the aqueous solubility of the CBZ cocrystals in a pH 2.0 buffer solution at the eutectic point, where drug and cocrystal are in equilibrium with the solution. The eutectic point between the cocrystal and the drug was reached by suspending 80 mg of the cocrystal and 30 mg of CBZ in 2 mL of the buffer solution. The obtained suspension was stirred continuously for 72 h at 37.0 ± 0.1 °C. After equilibration, the final pH of the solution was measured. The suspension was diluted with the mobile phase after being filtered through a […] PTEF filter. Concentrations of compounds were analyzed by HPLC. The solid phases after the experiment were characterized by PXRD.
# The column temperature was set to 40 °C.
# [2] = Preliminary solution stability (congruent/incongruent dissolution) in organic solvents, PXRD of residual phases; assay type: physicochemical
# Text: The most convenient way to determine the solubility product of a cocrystal is to ensure that the solution and the cocrystal are at thermodynamic equilibrium, i.e., that the cocrystal is congruently soluble in the chosen solvent. In this work, acetonitrile was primarily utilized as a medium to carry out solubility experiments. […] (1:1) and [CBZ + 3AcAmBA] […] In the case of [CBZ + 3AcAmBA] (1:1), incongruent solubility of the cocrystal was expected given the high solubility ratio of the components in acetonitrile (Table S6). This is likely to result in an asymmetric ternary phase diagram with a narrow stability region for the [CBZ + 3AcAmBA] (1:1) cocrystal. […] It is reasonable to assume that the poor solution stability of the [CBZ + 2AcAmBA] (1:1) cocrystal is not due to the large solubility difference between CBZ and 2AcAmBA but rather because of the low intrinsic thermodynamic stability of the binary solid form caused by the lack of energy gain associated with cocrystal formation, which leads to a higher solubility in all solvents considered. […] (1:1) cocrystal compared to the parent pure components (~40 °C, Figure S2), implicitly corroborate this supposition. Since no suitable solvent for solubility studies of [CBZ + 2AcAmBA] (1:1) could be found, this system was not further explored. The [CBZ + 3AcAmBA]
# [3] = Solubility of cocrystals and their constituents in organic solvents (shake-flask, HPLC); conditions: methanol, value is C∙10^2
# Method: For the [CBZ + 3AcAmBA] (1:1) cocrystal, methanol was used. For [CBZ + 4AcAmBA] (1:1), all the experiments were performed in acetonitrile. An excess of the solid was placed in an Eppendorf tube, and 2 mL of solvent was added. The resulting suspension was shaken in a ThermoMixer C (Eppendorf, Hamburg, Germany) at 800 rpm for 48 h at the specified temperature. Subsequently, the saturated solution was separated using a 0.22 μm PTEF filter, diluted, and analyzed using HPLC. The solid phases after the experiment were collected and characterized by PXRD. Each experiment was repeated three times.
# The HPLC was performed on an LC-20 AD Shimadzu Prominence model (Shimadzu, Kyoto, Japan) equipped with a PDA detector and a Luna C-18 column (150 mm × 4.6 mm i.d., 5 μm particle size, and 100 Å pore size). The column temperature was set to 40 °C. To achieve the proper separation of the cocrystal components, different ratios of the mobile phase, consisting of acetonitrile and a 0.1% aqueous solution of trifluoroacetic acid (35:65 v/v), were used. The flow rate was 1.0 mL·min^−1, and the injection volume was 20 μL. The UV detection of carbamazepine, 2-acetamidobenzoic acid, 3-acetamidobenzoic acid, and 4-acetamidobenzoic acid was carried out at the wavelengths of 285 nm, 249 nm, 220 nm, and 266 nm, respectively.
# [4] = Cocrystal formation thermodynamics from solubility data (Kf, ΔformG, ΔformH, ΔformS); assay type: physicochemical; conditions: for ΔformH: van't Hoff, 293.15-313.15 K
# Text: It is known that the relative stability of a cocrystal with respect to a physical mixture of the parent constituents at a given temperature can be quantitatively expressed in terms of the free-energy change, ΔformG, of the cocrystallization reaction. Analyzing the temperature dependence of the Gibbs formation energy can provide further information on the enthalpy and entropy contributions to the driving force of the process as well as help to estimate the thermodynamic transition temperature, which determines the stability domains of a cocrystal and its individual constituents. The experimental assessment of ΔformG is based on solubility data for the starting molecules and the corresponding cocrystal in the same solvent at a predetermined temperature using the equation below:(3) ΔformG=−RTlnap,Ax×ap,By/acc,Ax×acc,By=−RTlnap,Ax×ap,By/Ksp=−RTlnKf, where ap,A and ap,B represent the activities of pure A and B compounds in a saturated solution; acc,A and acc,B are the activities of the cocrystal components in a solution, in equilibrium with pure cocrystal; Ksp is the solubility product of a cocrystal; T is the temperature; x and y are the stoichiometric coefficients; and Kf is an equilibrium constant at the experimental temperature.
# Using the van’t Hoff expression, the enthalpy of the cocrystallization process, ΔformH, may be estimated by evaluating the Kf values at various temperatures (assuming that ΔformH is a constant within the selected temperature range):(4) dlnKf/d(1/T)=−ΔformH/R
# The entropy of cocrystal formation, ΔformS, can be estimated from (5) ΔformS=ΔformH−ΔformG/T
# Even though the activities in Equation (3) are usually approximated by the corresponding molar concentration while neglecting the activity coefficients, a more valid approximation implies that the activity coefficients for the two solute species are constant along the cocrystal solubility line and equal to the activity coefficients of the pure components in the saturated solutions in the same solvent and temperature. […] Table S5 contains the solubility values of CBZ, coformers, and the CBZ cocrystals with emodin, paeonol, nicotinamide, and glutaric acid in various organic solvents.
# [5] = 298.2K, listed as [CBZ+3AcAmBA] (1:1)
compound,measurement,setting,value
CC(=O)Nc1ccccc1C(=O)O.NC(=O)N1c2ccccc2C=Cc2ccccc21 [[CBZ + 2AcAmBA] (1:1)],"Scc, solubility of the cocrystal",[1],(2.8 ± 0.1)·10^−3 Mol·L^−1
same,"[CF]eu, eutectic concentration of coformer",[1],(7.5 ± 0.1)·10^−3 Mol·L^−1
same,"[CBZ]eu, eutectic concentration of CBZ",[1],(1.10 ± 0.06)·10^−3 Mol·L^−1
same,"Keu, eutectic constant",[1],6.8 ± 0.4
same,dissolution behaviour / solution stability,[2]; acetonitrile,dissolved incongruently
same,dissolution behaviour / solution stability,"[2]; several other tested solvents, including methanol, ethanol, and acetone",incongruent behavior
CC(=O)Nc1cccc(C(=O)O)c1.NC(=O)N1c2ccccc2C=Cc2ccccc21 [[CBZ + 3AcAmBA] (1:1)],"Scc, solubility of the cocrystal",[1],(1.30 ± 0.03)·10^−3 Mol·L^−1
same,"[CF]eu, eutectic concentration of coformer",[1],(1.75 ± 0.08)·10^−3 Mol·L^−1
same,"[CBZ]eu, eutectic concentration of CBZ",[1],(9.8 ± 0.2)·10^−4 Mol·L^−1
same,"Keu, eutectic constant",[1],1.8 ± 0.1
same,"Ccc,3AcAmBA∙10^2, coformer concentration in equilibrium with cocrystal",[3]; 293.15 K,7.0±0.1 mol/l
same,"Ccc,CBZ∙10^2, CBZ concentration in equilibrium with cocrystal",[3]; 293.15 K,7.00±0.06 mol/l
same,"Ccc,3AcAmBA∙10^2, coformer concentration in equilibrium with cocrystal",[3]; 298.15 K,8.1±0.1 mol/l
same,"Ccc,CBZ∙10^2, CBZ concentration in equilibrium with cocrystal",[3]; 298.15 K,8.20±0.10 mol/l
same,"Ccc,3AcAmBA∙10^2, coformer concentration in equilibrium with cocrystal",[3]; 303.15 K,9.5±0.1 mol/l
same,"Ccc,CBZ∙10^2, CBZ concentration in equilibrium with cocrystal",[3]; 303.15 K,9.50±0.08 mol/l
same,"Ccc,3AcAmBA∙10^2, coformer concentration in equilibrium with cocrystal",[3]; 308.15 K,11.1±0.06 mol/l
same,"Ccc,CBZ∙10^2, CBZ concentration in equilibrium with cocrystal",[3]; 308.15 K,11.00±0.08 mol/l
same,"Ccc,3AcAmBA∙10^2, coformer concentration in equilibrium with cocrystal",[3]; 313.15 K,12.5±0.07 mol/l
same,"Ccc,CBZ∙10^2, CBZ concentration in equilibrium with cocrystal",[3]; 313.15 K,12.10±0.08 mol/l
same,T·ΔformS,[4]; 298.2K,-0.908 ± 0.12 kcal/mol
same,lnKf,[4]; 298.2K,1.17 ± 0.02
same,ΔformG,[4]; 298.2K,-0.696 ± 0.012 kcal/mol
same,T·ΔformS,[4]; [5],-0.908 ± 0.12 kcal/mol
same,ΔformG,[4]; [5],-0.696 ± 0.012 kcal/mol
same,ΔformH,[4]; 298.2K,-1.6 ± 0.12 kcal/mol
same,ΔformH,[4]; [5],-1.6 ± 0.12 kcal/mol
same,lnKf,"[4]; methanol, 293.15 K",1.20±0.02
same,∆formG,"[4]; methanol, 293.15 K",-0.7 ± 0.012 kcal/mol
same,lnKf,"[4]; methanol, 298.15 K",1.17±0.02
same,∆formG,"[4]; methanol, 298.15 K",-0.696 ± 0.012 kcal/mol
same,lnKf,"[4]; methanol, 303.15 K",1.12±0.02
same,∆formG,"[4]; methanol, 303.15 K",-0.676 ± 0.012 kcal/mol
same,lnKf,"[4]; methanol, 308.15 K",1.06±0.015
same,∆formG,"[4]; methanol, 308.15 K",-0.65 ± 0.0096 kcal/mol
same,lnKf,"[4]; methanol, 313.15 K",1.04±0.02
same,∆formG,"[4]; methanol, 313.15 K",-0.643 ± 0.0072 kcal/mol
same,dissolution behaviour / solution stability,[2]; acetonitrile,dissolved incongruently
same,dissolution behaviour / solution stability,[2]; methanol,dissolve congruently
